Laboratory results as given in patent US12077503B2, “Substituted cyclic amides and their use as herbicides” (FMC CORPORATION, priority 2015, dated 2024).

Columns and labels:
Type in all cases: in vivo
[1] = test system: barnyardgrass (Echinochloa crus-galli); assay: Test G Pre-Emergence Protocol; conditions: Echinochloa crus-galli, pre-emergence, 312 h, evaluated after 13 days
Outline: (§1)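 Spraying took place one day after sowing, at 15.625, 62.5 or 250 g/ha, using an acetone/water (50:50) spray solution containing 0.5% Tween 20. Plants were kept under glasshouse conditions (24/16 °C, 14 h light, 65% humidity, watered twice daily), and injury was rated 0–100 at day 13.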

[2] = test system: corn (Zea mays); assay: Test G Pre-Emergence Protocol; conditions: Zea mays, pre-emergence, 312 h, evaluated after 13 days
Outline: as §1

[3] = test system: giant foxtail (Setaria faberi); assay: Test G Pre-Emergence Protocol; conditions: Setaria faberi, pre-emergence, 312 h, evaluated after 13 days
Outline: as §1

[4] = test system: ivy-leaved morning glory (Ipomoea hederacea); assay: Test G Pre-Emergence Protocol; conditions: Ipomoea, pre-emergence, 312 h, evaluated after 13 days
Outline: as §1

[5] = test system: redroot pigweed (Amaranthus retroflexus); assay: Test G Pre-Emergence Protocol; conditions: Amaranthus retroflexus, pre-emergence, 312 h, evaluated after 13 days
Outline: as §1

[6] = test system: velvetleaf (Abutilon theophrasti); assay: Test G Pre-Emergence Protocol; conditions: Abutilon theophrasti, pre-emergence, 312 h, evaluated after 13 days
Outline: as §1

[7] = test system: barnyardgrass (Echinochloa crus-galli); assay: Test G Post-Emergence Protocol; conditions: Echinochloa crus-galli, post-emergence, 312 h
Outline: (§2)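 Post-emergence herbicidal damage, scored visually 0–100 at 13 days. Application at 15.625, 62.5 or 250 g/ha onto 8-day-old plants grown under glasshouse control.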

[8] = test system: corn (Zea mays); assay: Test G Post-Emergence Protocol; conditions: Zea mays, post-emergence, 312 h
Outline: as §2

[9] = test system: giant foxtail (Setaria faberi); assay: Test G Post-Emergence Protocol; conditions: Setaria faberi, post-emergence, 312 h
Outline: as §2

[10] = test system: ivy-leaved morning glory (Ipomoea hederacea); assay: Test G Post-Emergence Protocol; conditions: Ipomoea, post-emergence, 312 h
Outline: as §2

[11] = test system: redroot pigweed (Amaranthus retroflexus); assay: Test G Post-Emergence Protocol; conditions: Amaranthus retroflexus, post-emergence, 312 h
Outline: as §2

[12] = test system: velvetleaf (Abutilon theophrasti); assay: Test G Post-Emergence Protocol; conditions: Abutilon theophrasti, post-emergence, 312 h
Outline: as §2

With `CN1C[C@@H](c2ccc(C(F)(F)F)cc2)[C@H](C(=O)Nc2cccc(F)c2)C1=O` (racemic) [Compound 1623] the pest or weed control at 15.625 g/ha ([1]; 15.625 g ai/ha, read-out: Barnyard grass damage rating (100=total damage to plant; 0=no damage to plant)) was 10%, the pest or weed control at 62.5 g/ha ([1]; 62.5 g ai/ha, 100=total damage to plant, 0=no damage to plant, read-out: plant damage rating, Barnyardgrass) was 30% and the pest or weed control at 250 g/ha ([1]; 250 g ai/ha, read-out: Barnyardgrass damage rating (100=total damage to plant; 0=no damage to plant)) was 60%. For the same molecule, the plant injury at 15.625 g/ha ([2]; 15.625 g ai/ha, read-out: Corn damage rating (100=total damage to plant; 0=no damage to plant)) was 10%, the plant injury at 62.5 g/ha ([2]; 62.5 g ai/ha, 100=total damage to plant, 0=no damage to plant, read-out: plant damage rating, Corn) was 0% and the plant injury at 250 g/ha ([2]; 250 g ai/ha, read-out: Corn damage rating (100=total damage to plant; 0=no damage to plant)) was 10%. The pest or weed control at 15.625 g/ha ([3]; 15.625 g ai/ha, read-out: Foxtail, Giant damage rating (100=total damage to plant; 0=no damage to plant)) was 20%, the pest or weed control at 62.5 g/ha ([3]; 62.5 g ai/ha, 100=total damage to plant, 0=no damage to plant, read-out: plant damage rating, Foxtail, Giant) was 60% and the pest or weed control at 250 g/ha ([3]; 250 g ai/ha, read-out: Foxtail, Giant damage rating (100=total damage to plant; 0=no damage to plant)) was 80%. The pest or weed control at 15.625 g/ha ([4]; 15.625 g ai/ha, read-out: Morning-glory, Ivy-leaved damage rating (100=total damage to plant; 0=no damage to plant)) was 10%, the pest or weed control at 62.5 g/ha ([4]; 62.5 g ai/ha, 100=total damage to plant, 0=no damage to plant, read-out: plant damage rating, Morningglory, Ivy-leaved) was 10% and the pest or weed control at 250 g/ha ([4]; 250 g ai/ha, read-out: Morningglory, Ivy-leaved damage rating (100=total damage to plant; 0=no damage to plant)) was 10%. The pest or weed control at 15.625 g/ha ([5]; 15.625 g ai/ha, read-out: Pigweed, Redroot damage rating (100=total damage to plant; 0=no damage to plant)) was 10%, the pest or weed control at 62.5 g/ha ([5]; 62.5 g ai/ha, 100=total damage to plant, 0=no damage to plant, read-out: plant damage rating, Pigweed, Redroot) was 10% and the pest or weed control at 250 g/ha ([5]; 250 g ai/ha, read-out: Pigweed, Redroot damage rating (100=total damage to plant; 0=no damage to plant)) was 50%. For the same molecule, the pest or weed control at 15.625 g/ha ([6]; 15.625 g ai/ha, read-out: Velvetleaf damage rating (100=total damage to plant; 0=no damage to plant)) was 10%, the pest or weed control at 62.5 g/ha ([6]; 62.5 g ai/ha, 100=total damage to plant, 0=no damage to plant, read-out: plant damage rating, Velvetleaf) was 0% and the pest or weed control at 250 g/ha ([6]; 250 g ai/ha, read-out: Velvetleaf damage rating (100=total damage to plant; 0=no damage to plant)) was 50%. The pest or weed control at 15.625 g/ha ([7]; 15.625 g ai/ha, evaluated after 13 days (100=total damage to plant; 0=no damage to plant), read-out: Barnyardgrass damage rating) was 10%, the pest or weed control at 62.5 g/ha ([7]; 62.5 g ai/ha, evaluated after 13 days, read-out: Barnyardgrass damage rating (100=total damage to plant; 0=no damage to plant)) was 70% and the pest or weed control at 250 g/ha ([7]; 250 g ai/ha, evaluated after 13 days, read-out: damage to plant, Barnyardgrass (100=total damage to plant; 0=no damage to plant)) was 80%. It also gave a plant injury at 15.625 g/ha ([8]; 15.625 g ai/ha, evaluated after 13 days (100=total damage to plant; 0=no damage to plant), read-out: Corn damage rating) of 0%, a plant injury at 62.5 g/ha ([8]; 62.5 g ai/ha, evaluated after 13 days, read-out: Corn damage rating (100=total damage to plant; 0=no damage to plant)) of 0% and a plant injury at 250 g/ha ([8]; 250 g ai/ha, evaluated after 13 days, read-out: damage to plant, Corn (100=total damage to plant; 0=no damage to plant)) of 30%. For the same molecule, the pest or weed control at 15.625 g/ha ([9]; 15.625 g ai/ha, evaluated after 13 days (100=total damage to plant; 0=no damage to plant), read-out: Foxtail, Giant damage rating) was 30%, the pest or weed control at 62.5 g/ha ([9]; 62.5 g ai/ha, evaluated after 13 days, read-out: Foxtail, Giant damage rating (100=total damage to plant; 0=no damage to plant)) was 70% and the pest or weed control at 250 g/ha ([9]; 250 g ai/ha, evaluated after 13 days, read-out: damage to plant, Foxtail, Giant (100=total damage to plant; 0=no damage to plant)) was 80%. For the same molecule, the pest or weed control at 15.625 g/ha ([10]; 15.625 g ai/ha, evaluated after 13 days (100=total damage to plant; 0=no damage to plant), read-out: Morningglory, Ivy-leaved damage rating) was 30%, the pest or weed control at 62.5 g/ha ([10]; 62.5 g ai/ha, evaluated after 13 days, read-out: Morningglory, Ivy-leaved damage rating (100=total damage to plant; 0=no damage to plant)) was 30% and the pest or weed control at 250 g/ha ([10]; 250 g ai/ha, evaluated after 13 days, read-out: damage to plant, Morningglory, Ivy-leaved (100=total damage to plant; 0=no damage to plant)) was 60%. The pest or weed control at 15.625 g/ha ([11]; 15.625 g ai/ha, evaluated after 13 days (100=total damage to plant; 0=no damage to plant), read-out: Pigweed, Redroot damage rating) was 10%, the pest or weed control at 62.5 g/ha ([11]; 62.5 g ai/ha, evaluated after 13 days, read-out: Pigweed, Redroot damage rating (100=total damage to plant; 0=no damage to plant)) was 20% and the pest or weed control at 250 g/ha ([11]; 250 g ai/ha, evaluated after 13 days, read-out: damage to plant, Pigweed, Redroot (100=total damage to plant; 0=no damage to plant)) was 60%. It also gave a pest or weed control at 15.625 g/ha ([12]; 15.625 g ai/ha, evaluated after 13 days (100=total damage to plant; 0=no damage to plant), read-out: Velvetleaf damage rating) of 0%, a pest or weed control at 62.5 g/ha ([12]; 62.5 g ai/ha, evaluated after 13 days, read-out: Velvetleaf damage rating (100=total damage to plant; 0=no damage to plant)) of 0% and a pest or weed control at 250 g/ha ([12]; 250 g ai/ha, evaluated after 13 days, read-out: damage to plant, Velvetleaf (100=total damage to plant; 0=no damage to plant)) of 20%.
